{"source": "paper PMC6733935", "about": "“A convenient and efficient total solid-phase synthesis of DOTA-functionalized tumor-targeting peptides for PET imaging of cancer” (EJNMMI Research, 2019)", "key": {"[1]": {"test_system": "PC3 prostate carcinoma xenografts", "format": "in vivo, nude mice", "details": "for uptake in the PC3 tumors / tumor-to-blood ratio / tumor-to-muscle ratio: nude mice bearing PC3 xenografts", "method": "BN/GRP receptor-positive MDA-MB-231 and PC3 cell lines (American Type Culture Collection, Rockville, USA) were grown as monolayers at 37 °C in a humidified atmosphere containing RPMI-1640 culture media with 10% fetal bovine serum (FBS) in tissue culture flasks. Twenty-four hours prior to conducting the tumor implantation, the media was replaced with RPMI-1640/10% FBS. The cells were grown to 80-90% confluency and harvested by trypsinization. After centrifugation, about 50 million cells were suspended in 1 mL media for implantation into mice. To prepare cells for inoculation, MDA-MB-231 or PC3 cancer cells with media were centrifuged, the media decanted, and the cell pellet was mixed with phosphate-buffered saline (PBS) to reach a concentration of approximately 5 million cells per 100 μL PBS.\nBased on encouraging biological and tumor-targeting properties, ^68Ga-DOTA(cyclen)-Ahx-BN was further tested in nude mice bearing PC3 prostate carcinoma xenografts. […] Kidney was the only major organ which retained most of the radioactivity (up to 6% ID/g) after 2 h p.i. […] The tumor-to-blood and tumor-to-muscle ratios were 3.27 and 12.62 at 1 h and 2.85 and 11.40 at 2 h p.i., respectively (data not shown)."}, "[2]": {"test_system": "BN/GRP receptor-positive MDA-MB-231 tumors", "test": "Receptor blocking study in MDA-MB-231 tumor-bearing nude mice", "format": "in vivo", "method": "For the receptor blocking studies, each animal was injected with excess cold of BN peptide (~ 200 μg) 20 min prior to the radiotracers injection. The animals (n = 2 per group) were sacrificed at 60 min post radiotracers injection and the % ID/g for the tumor and major organs was calculated as stated before.\n^68Ga-labeled BN peptides were further investigated in nude mice carrying estrogen-independent and highly aggressive MDA-MB-231 xenografts in order to determine their potential for diagnosis of BN/GRP receptor-positive breast cancer in vivo (Table 4). […] (with 28% washout from the tumors over 2 h). […] When a blocking dose of 300 μg of nonradioactive BN peptide was injected intramuscularly for in vivo saturation of receptors 20 min prior to the administration of radiopeptide, it was observed that the uptake in the tumors was reduced by approximately 80% (0.47 ± 0.06% ID/g blocked vs. 2.32 ± 0.25% ID/g unblocked, P = 0.002), highlighting the specificity of the ^68Ga-labeled BN peptide for respective BN/GRP receptor-positive breast cancer cells. […] The tumor uptake values of other BN peptides varied from 1.78 ± 0.40% to 2.15 ± 0.33% ID/g at 1 h p.i and from 0.84 ± 0.13% to 1.37 ± 0.25% ID/g at 2 h p.i. (Table 4). With the blocking dose, good reduction in the tumors (from 51 to 80%) was attained validating the in vivo tumor receptor specificity of these radiolabeled BN peptides for BN/GRP receptor-positive breast cancer cells."}, "MDA-MB-231 tumor": {"test_system": "MDA-MB-231 tumor", "test": "NanoPET/CT imaging of MDA-MB-231 tumor-bearing nude mice", "format": "in vivo", "details": "60 min p.i.", "method": "PET/CT scans were performed using a preclinical NanoPET/CT scanner (Mediso, Hungary) on MDA-MB-231 tumor-bearing ~ 8-week-ld female nude mice. Mice (19–23 g) were anesthetized prior to the imaging with a mixture of (100 μL, subcutaneous injection) ketamine and xylazine. One hour after the intravenous injection of radiolabeled BN peptide (100 μL peptide, 100–150 μCi, total peptide dose ~ 100 ng) via the tail vein into the anesthetized mouse, each mouse was placed in the camera in prone position and static image was acquired for 30 min. The acquired raw data in these imaging studies were reconstructed to visible image form using Interveiw Fusion software (Mediso, Hungary)."}}, "note": "Where two headings read alike, the source gives them in different places. Square brackets hold non-standard residues; d marks the D form. Peptide text beside a SMILES is read from it. * marks the point of attachment. DOTA = O=C(O)CN1CCN(CC(=O)O)CCN(CC(=O)*)CCN(CC(=O)O)CC1; Cha = N[C@@H](CC1CCCCC1)C(=O)O; Nle = CCCC[C@H](N)C(=O)O; Ahx = NCCCCCC(=O)O", "data": [{"smiles": "CCCC[C@H](NC(=O)[C@H](Cc1c[nH]cn1)NC(=O)[C@H](CC1CCCCC1)NC(=O)[C@@H](NC(=O)[C@H](C)NC(=O)[C@H](Cc1c[nH]c2ccccc12)NC(=O)[C@H](CCC(N)=O)NC(=O)[C@H](CS)NC(=O)CNC(=O)CNC(=O)CCCCCNC(=O)CN1CCN(CC(=O)O)CCN(CC(=O)O)CCN(CC(=O)O)CC1)C(C)C)C(=O)N[C@@H](CCSC)C(N)=O", "note": "[^68Ga-DOTA-Ahx-BN Cyclen, metal not drawn] ({DOTA-Ahx}-GGCQWAV[Cha]H[Nle]M-NH2)", "values": [{"measurement": "radioactivity retained in Kidney", "setting": "[1]; mouse, in vivo", "result": "up to 6 % ID/g"}, {"measurement": "uptake in the PC3 tumors", "setting": "[1]; 1 h p.i.", "result": "2.05 ± 0.54", "unit": "% ID/g"}, {"measurement": "tumor-to-blood ratio", "setting": "[1]; 1 h p.i. (data not shown)", "result": 3.27}, {"measurement": "tumor-to-muscle ratio", "setting": "[1]; 1 h p.i. (data not shown)", "result": 12.62}, {"measurement": "uptake in the PC3 tumors", "setting": "[1]; 2 h p.i.", "result": "1.34 ± 0.22", "unit": "% ID/g"}, {"measurement": "tumor-to-blood ratio", "setting": "[1]; 2 h p.i. (data not shown)", "result": 2.85}, {"measurement": "tumor-to-muscle ratio", "setting": "[1]; 2 h p.i. (data not shown)", "result": 11.40}, {"measurement": "Tumor uptake, blocked", "setting": "[2]; blocking dose of 300 μg nonradioactive BN peptide 20 min prior to radiopeptide, 1 h p.i., n = 2 per group", "result": "0.47 ± 0.06", "unit": "% ID/g"}, {"measurement": "reduction of uptake in the tumors with blocking dose", "setting": "[2]; blocking dose of nonradioactive BN peptide 20 min prior, 1 h p.i.", "result": "approximately 80%"}, {"measurement": "blockade of uptake in pancreas with blocking dose", "setting": "[2]; same blocking dose, maximum blockade", "result": 80, "unit": "%"}, {"measurement": "Tumor visibility in PET image under blocking condition", "setting": "MDA-MB-231 tumor; in the presence of 300 μg cold BN peptide", "result": "hardly detectable"}, {"measurement": "Tumor visibility in PET image", "setting": "MDA-MB-231 tumor; ~100 ng, ~100 μCi, unblocked", "result": "clearly visible"}]}]}
